According to ChEMBL document CHEMBL5696441 (Nat Chem Biol, 2011):

What was measured:
[1] = target: Receptor-type tyrosine-protein kinase FLT3 (Homo sapiens) (UniProt P36888); assay: Inhibition of human FLT3 assessed as residual activity at 1 uM using Poly(Ala,Glu,Lys,Tyr)6:2:5:1 as substrate in presence of 33P-ATP by ProQinase assay relative to control
[2] = target: Receptor tyrosine-protein kinase erbB-4 (Homo sapiens) (UniProt Q15303); assay: Inhibition of ERBB4 (unknown origin) assessed as remaining activity at 1 uM by Kinome scan method relative to control
[3] = target: Tyrosine-protein kinase JAK1 (Homo sapiens) (UniProt P23458); assay: Inhibition of JAK1 JH1 domain (unknown origin) assessed as remaining activity at 1 uM by Kinome scan method relative to control
[4] = target: Ribosomal protein S6 kinase alpha-1 (Homo sapiens) (UniProt Q15418); assay: Inhibition of N-terminal kinase domain RPS6KA1 (unknown origin) assessed as remaining activity at 1 uM by Kinome scan method relative to control
[5] = target: Protein kinase C zeta type (Homo sapiens) (UniProt Q05513); assay: Inhibition of human PKCzeta assessed as residual activity at 1 uM using 3xChocktide-PKC(19-31) as substrate in presence of 33P-ATP by ProQinase assay relative to control
[6] = target: Protein kinase C delta type (Homo sapiens) (UniProt Q05655); assay: Inhibition of PRKCD (unknown origin) assessed as remaining activity at 1 uM by Kinome scan method relative to control
[7] = target: Death-associated protein kinase 1 (Homo sapiens) (UniProt P53355); assay: Inhibition of human DAPK1 assessed as residual activity at 1 uM using RBER-GSK3 as substrate in presence of 33P-ATP by ProQinase assay relative to control
[8] = test system: Hepatocyte growth factor receptor (Homo sapiens), P08581 [Y1235D]; assay: Inhibition of MET Y1235D mutant (unknown origin) assessed as remaining activity at 1 uM by Kinome scan method relative to control
[9] = target: G protein-coupled receptor kinase 6 (Homo sapiens) (UniProt P43250); assay: Inhibition of human GRK6 assessed as residual activity at 1 uM using casein as substrate in presence of 33P-ATP by ProQinase assay relative to control
[10] = target: Ephrin type-A receptor 4 (Homo sapiens) (UniProt P54764); assay: Inhibition of human EPHA4 assessed as residual activity at 1 uM using polyEY as substrate in presence of 33P-ATP by ProQinase assay relative to control
[11] = test system: Hepatocyte growth factor receptor (Homo sapiens), P08581 [Y1235D]; assay: Inhibition of human MET Y1235D mutant assessed as residual activity at 1 uM using PolyEY as substrate in presence of 33P-ATP by ProQinase assay relative to control
[12] = target: Activin receptor type-1B (Homo sapiens) (UniProt P36896); assay: Inhibition of human ACVR1B assessed as residual activity at 1 uM using RBER-CHKtide as substrate in presence of 33P-ATP by ProQinase assay relative to control
[13] = Anti-inflammatory activity against human derived high respond PBMC cells assessed as inhibition in stimulated TNF-alpha cytokine release incubated for 2 hrs in the presence of LPS/SEB/aCD28 by Luminex based sandwich immunoassay; assay type: functional, cell-based
[14] = Plasma concentration in Gal/LPS induced mouse at 3 mg/kg, po for 1 hrs; assay type: ADME, organism-based
[15] = target: Testis-specific serine/threonine-protein kinase 2 (Homo sapiens) (UniProt Q96PF2); assay: Inhibition of human TSK2 assessed as residual activity at 1 uM using RBER-CHKtide as substrate in presence of 33P-ATP by ProQinase assay relative to control
[16] = test system: Proto-oncogene tyrosine-protein kinase receptor Ret (Homo sapiens), P07949 [V804L]; assay: Inhibition of RET V804L (unknown origin) assessed as remaining activity at 1 uM by Kinome scan method relative to control
[17] = Anti-inflammatory activity against human derived high respond PBMC cells assessed as inhibition in stimulated IP-10 chemokine release incubated for 2 hrs in the presence of LPS/SEB/aCD28 by Luminex based sandwich immunoassay; assay type: functional, cell-based
[18] = target: T1, Serine/threonine-protein kinase D1 (Homo sapiens) (UniProt Q15139); assay: Inhibition of human PKCmu assessed as residual activity at 1 uM using RBER-CHKtide as substrate in presence of 33P-ATP by ProQinase assay relative to control
T1 sequence (whole entry): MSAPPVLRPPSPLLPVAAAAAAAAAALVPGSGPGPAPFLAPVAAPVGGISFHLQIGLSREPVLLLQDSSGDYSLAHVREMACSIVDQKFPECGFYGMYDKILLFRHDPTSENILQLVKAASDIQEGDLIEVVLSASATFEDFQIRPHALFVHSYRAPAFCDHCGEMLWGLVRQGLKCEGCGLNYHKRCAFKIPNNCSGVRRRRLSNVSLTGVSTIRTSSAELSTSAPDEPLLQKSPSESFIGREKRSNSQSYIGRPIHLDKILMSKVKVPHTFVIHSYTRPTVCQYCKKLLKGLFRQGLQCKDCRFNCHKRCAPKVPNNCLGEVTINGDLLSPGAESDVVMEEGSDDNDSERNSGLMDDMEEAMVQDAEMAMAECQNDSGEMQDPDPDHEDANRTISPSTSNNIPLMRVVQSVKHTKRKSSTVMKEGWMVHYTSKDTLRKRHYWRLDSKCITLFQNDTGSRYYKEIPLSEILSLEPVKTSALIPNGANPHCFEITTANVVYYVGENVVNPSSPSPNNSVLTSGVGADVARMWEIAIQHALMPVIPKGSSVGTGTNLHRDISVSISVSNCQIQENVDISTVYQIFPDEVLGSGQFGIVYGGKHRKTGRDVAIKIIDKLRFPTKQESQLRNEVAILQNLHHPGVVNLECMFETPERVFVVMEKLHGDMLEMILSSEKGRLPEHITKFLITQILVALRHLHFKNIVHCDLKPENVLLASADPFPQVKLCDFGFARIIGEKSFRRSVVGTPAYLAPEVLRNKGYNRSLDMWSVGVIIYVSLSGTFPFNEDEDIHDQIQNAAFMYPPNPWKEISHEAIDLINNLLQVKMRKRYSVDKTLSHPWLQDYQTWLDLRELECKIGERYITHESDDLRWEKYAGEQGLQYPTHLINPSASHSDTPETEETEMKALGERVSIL

Sequence of Receptor-type tyrosine-protein kinase FLT3 (Homo sapiens) (P36888 whole entry): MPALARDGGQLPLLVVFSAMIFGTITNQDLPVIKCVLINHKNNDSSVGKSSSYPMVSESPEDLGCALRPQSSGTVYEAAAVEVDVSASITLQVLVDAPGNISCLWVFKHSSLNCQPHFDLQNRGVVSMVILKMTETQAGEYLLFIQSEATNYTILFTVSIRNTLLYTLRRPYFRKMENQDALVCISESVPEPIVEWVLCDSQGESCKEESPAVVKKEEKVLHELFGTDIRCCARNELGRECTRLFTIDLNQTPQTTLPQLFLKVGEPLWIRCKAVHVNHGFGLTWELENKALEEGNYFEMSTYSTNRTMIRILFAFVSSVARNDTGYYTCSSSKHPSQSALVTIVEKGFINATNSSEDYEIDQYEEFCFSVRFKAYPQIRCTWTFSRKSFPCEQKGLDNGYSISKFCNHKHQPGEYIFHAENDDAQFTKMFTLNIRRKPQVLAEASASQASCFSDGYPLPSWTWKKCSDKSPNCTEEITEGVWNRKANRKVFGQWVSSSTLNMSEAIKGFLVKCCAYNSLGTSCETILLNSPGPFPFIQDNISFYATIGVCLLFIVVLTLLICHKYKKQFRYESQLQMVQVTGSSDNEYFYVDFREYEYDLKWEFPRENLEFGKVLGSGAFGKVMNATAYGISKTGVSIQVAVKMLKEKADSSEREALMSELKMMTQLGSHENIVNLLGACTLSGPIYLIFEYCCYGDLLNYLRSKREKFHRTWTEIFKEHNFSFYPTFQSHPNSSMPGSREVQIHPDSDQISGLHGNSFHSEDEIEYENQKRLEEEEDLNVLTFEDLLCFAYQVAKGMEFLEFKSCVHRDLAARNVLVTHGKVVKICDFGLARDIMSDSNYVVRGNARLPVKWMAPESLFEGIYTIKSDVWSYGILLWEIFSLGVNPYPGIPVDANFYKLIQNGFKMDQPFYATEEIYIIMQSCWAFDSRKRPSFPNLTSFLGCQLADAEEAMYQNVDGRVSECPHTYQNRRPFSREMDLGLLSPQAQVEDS
Sequence of Protein kinase C delta type (Homo sapiens) (Q05655 whole entry, looked up): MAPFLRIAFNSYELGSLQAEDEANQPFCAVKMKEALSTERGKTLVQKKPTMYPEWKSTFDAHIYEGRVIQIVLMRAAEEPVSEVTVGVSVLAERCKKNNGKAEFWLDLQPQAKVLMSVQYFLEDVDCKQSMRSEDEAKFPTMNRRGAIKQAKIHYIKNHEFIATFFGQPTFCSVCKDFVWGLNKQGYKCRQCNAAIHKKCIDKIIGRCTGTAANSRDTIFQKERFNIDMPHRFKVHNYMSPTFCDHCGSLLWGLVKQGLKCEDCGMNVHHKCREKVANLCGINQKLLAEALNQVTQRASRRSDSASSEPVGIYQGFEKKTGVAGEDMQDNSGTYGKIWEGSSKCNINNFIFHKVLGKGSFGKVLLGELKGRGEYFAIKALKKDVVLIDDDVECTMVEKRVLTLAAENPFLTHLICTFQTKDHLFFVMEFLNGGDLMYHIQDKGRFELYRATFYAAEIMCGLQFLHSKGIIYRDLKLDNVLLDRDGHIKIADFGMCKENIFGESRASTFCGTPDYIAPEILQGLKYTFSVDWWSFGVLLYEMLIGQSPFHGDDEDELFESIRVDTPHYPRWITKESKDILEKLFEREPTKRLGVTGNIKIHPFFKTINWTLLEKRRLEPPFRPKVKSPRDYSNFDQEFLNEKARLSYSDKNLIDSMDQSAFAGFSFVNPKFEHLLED
Sequence of Receptor tyrosine-protein kinase erbB-4 (Homo sapiens) (Q15303 whole entry, the tested form may be a part): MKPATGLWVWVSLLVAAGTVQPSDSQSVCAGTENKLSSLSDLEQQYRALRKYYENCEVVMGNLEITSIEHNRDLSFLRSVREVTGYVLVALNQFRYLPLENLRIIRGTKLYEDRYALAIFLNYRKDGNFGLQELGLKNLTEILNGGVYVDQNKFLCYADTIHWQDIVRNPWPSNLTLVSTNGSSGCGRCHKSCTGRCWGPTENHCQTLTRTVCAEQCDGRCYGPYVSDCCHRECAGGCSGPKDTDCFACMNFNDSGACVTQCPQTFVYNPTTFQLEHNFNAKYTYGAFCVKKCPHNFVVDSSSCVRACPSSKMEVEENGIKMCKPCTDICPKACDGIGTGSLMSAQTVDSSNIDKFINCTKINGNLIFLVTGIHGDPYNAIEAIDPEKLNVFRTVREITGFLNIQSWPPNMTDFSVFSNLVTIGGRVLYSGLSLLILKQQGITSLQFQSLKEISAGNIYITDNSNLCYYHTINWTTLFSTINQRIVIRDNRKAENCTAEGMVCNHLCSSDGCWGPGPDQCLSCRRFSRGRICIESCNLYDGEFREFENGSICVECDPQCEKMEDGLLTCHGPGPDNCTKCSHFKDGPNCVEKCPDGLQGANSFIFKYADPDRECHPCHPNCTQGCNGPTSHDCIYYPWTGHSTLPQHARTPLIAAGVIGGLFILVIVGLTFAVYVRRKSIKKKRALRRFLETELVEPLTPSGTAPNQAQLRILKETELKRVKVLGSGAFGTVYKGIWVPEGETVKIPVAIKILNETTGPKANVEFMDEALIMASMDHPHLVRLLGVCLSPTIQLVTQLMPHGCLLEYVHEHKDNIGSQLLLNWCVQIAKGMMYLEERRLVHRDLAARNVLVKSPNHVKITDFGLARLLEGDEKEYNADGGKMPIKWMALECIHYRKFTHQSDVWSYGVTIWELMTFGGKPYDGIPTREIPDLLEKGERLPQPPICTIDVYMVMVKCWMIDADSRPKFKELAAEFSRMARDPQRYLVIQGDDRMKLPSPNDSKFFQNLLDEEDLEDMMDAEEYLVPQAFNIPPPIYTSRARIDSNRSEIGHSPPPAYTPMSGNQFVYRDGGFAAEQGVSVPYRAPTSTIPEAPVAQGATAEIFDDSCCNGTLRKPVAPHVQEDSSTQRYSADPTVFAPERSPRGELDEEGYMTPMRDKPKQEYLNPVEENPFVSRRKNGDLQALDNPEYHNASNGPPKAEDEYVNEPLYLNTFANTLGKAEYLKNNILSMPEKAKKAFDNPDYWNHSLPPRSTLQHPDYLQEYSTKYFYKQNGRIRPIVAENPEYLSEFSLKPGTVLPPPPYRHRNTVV
Sequence of Ephrin type-A receptor 4 (Homo sapiens) (P54764 whole entry): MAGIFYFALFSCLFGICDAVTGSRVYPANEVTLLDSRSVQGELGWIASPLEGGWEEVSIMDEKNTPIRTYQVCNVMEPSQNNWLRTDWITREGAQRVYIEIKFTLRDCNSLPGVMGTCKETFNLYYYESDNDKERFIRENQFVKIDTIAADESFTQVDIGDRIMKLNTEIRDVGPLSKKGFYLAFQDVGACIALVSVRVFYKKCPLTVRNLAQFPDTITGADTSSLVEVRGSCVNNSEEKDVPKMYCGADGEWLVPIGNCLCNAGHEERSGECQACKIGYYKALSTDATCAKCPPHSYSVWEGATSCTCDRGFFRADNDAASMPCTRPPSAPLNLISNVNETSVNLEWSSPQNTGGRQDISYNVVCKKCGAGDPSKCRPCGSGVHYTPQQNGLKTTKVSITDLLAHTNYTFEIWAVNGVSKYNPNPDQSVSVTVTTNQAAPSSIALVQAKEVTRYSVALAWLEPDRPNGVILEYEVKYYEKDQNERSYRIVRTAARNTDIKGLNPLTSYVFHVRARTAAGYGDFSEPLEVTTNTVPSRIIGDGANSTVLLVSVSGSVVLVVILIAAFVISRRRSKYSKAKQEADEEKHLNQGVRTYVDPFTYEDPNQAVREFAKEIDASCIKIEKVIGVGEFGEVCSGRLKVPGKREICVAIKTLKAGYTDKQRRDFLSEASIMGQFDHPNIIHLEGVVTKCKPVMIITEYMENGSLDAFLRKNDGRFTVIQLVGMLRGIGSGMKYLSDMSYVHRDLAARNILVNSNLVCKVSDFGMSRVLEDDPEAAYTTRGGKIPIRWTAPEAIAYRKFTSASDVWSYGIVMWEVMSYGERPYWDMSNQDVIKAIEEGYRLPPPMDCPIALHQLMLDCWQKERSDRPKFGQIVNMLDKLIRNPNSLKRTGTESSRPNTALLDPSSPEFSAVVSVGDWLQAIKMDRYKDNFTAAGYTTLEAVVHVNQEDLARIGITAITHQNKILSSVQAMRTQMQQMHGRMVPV
Sequence of Tyrosine-protein kinase JAK1 (Homo sapiens) (P23458 whole entry, the tested form may be a part): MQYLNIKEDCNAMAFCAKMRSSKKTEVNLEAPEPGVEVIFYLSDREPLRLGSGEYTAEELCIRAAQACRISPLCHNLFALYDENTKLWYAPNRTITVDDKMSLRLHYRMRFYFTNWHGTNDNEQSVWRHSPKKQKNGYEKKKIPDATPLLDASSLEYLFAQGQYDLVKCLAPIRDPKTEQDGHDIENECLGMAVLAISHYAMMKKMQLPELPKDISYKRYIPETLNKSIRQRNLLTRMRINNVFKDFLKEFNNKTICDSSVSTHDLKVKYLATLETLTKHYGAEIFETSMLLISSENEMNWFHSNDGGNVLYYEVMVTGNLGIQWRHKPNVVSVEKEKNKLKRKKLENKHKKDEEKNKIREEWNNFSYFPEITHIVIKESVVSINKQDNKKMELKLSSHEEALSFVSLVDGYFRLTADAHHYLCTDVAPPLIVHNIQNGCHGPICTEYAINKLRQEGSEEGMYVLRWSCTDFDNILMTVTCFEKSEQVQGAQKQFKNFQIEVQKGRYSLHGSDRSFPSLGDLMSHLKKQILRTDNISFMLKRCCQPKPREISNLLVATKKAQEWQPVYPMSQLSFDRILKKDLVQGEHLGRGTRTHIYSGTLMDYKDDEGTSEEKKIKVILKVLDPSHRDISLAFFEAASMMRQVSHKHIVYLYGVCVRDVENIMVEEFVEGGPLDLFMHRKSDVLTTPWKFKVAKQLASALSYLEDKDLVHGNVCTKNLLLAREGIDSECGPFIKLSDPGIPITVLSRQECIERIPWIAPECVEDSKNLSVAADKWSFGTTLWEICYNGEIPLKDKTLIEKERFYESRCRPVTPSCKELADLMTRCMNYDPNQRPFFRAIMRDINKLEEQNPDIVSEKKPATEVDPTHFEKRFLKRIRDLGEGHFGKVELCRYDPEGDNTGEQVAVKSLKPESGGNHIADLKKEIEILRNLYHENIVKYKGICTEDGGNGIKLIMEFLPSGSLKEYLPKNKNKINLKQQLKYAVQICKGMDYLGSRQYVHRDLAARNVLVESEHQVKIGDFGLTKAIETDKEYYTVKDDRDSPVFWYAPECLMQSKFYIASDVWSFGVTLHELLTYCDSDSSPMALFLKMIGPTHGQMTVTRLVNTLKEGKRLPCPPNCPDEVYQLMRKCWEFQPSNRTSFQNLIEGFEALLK

O=C1c2ccc(Nc3ccc(F)cc3F)cc2CCc2ccc(OC[C@H](O)CO)cc21 [Skepinone-L]
Activity [1]: 106% | Activity [2]: 97% | Activity [3]: 100% | Activity [4]: 100% | Activity [5]: 109% | Activity [6]: 94% | Activity [7]: 86% | Activity [8]: 97% | Activity [9]: 82% | Activity [10]: 93% | Activity [11]: 114% | Activity [12]: 77% | IC50 [13]: 50 nM | concentration at 1 h [14]: 240 nM | Activity [15]: 82% | Activity [16]: 100% | IC50 [17]: Not Active | Activity [18]: 92%
